Source: publication PMC4620497 (Scientific Reports, 2015)

Tests used:
IGF1R = target: T1, IGF1R (Homo sapiens, UniProt P08069); parameters: method as in earlier work; details: Table S1; cited from earlier work
T1 construct: DNA tag (qPCR read-out); purchased Ambit Biosciences (KINOMEscan service)

PIM1 = target: T2, PIM1 (Homo sapiens, UniProt P11309); assay: KINOMEscan panel screen; format: binding; details: read-out: Percent Control(%)
T2 construct: purchased DiscoveRx KINOMEscan (Ambit Biosciences)

HCK = target: T3, HCK (Homo sapiens, UniProt P08631); assay: KINOMEscan panel screen; format: binding; details: read-out: Percent Control(%)
T3 construct: purchased DiscoveRx KINOMEscan (Ambit Biosciences)

MAPKAPK2 = target: T4, MAPKAPK2 (Homo sapiens, UniProt P49137); assay: KINOMEscan panel screen; format: binding; details: read-out: Percent Control(%)
T4 construct: purchased DiscoveRx KINOMEscan (Ambit Biosciences)

STK35 = target: T5, STK35 (Homo sapiens, UniProt Q8TDR2); assay: KINOMEscan panel screen; format: binding; details: read-out: Percent Control(%)
T5 construct: purchased DiscoveRx KINOMEscan (Ambit Biosciences)
T5 sequence (Q8TDR2 whole entry): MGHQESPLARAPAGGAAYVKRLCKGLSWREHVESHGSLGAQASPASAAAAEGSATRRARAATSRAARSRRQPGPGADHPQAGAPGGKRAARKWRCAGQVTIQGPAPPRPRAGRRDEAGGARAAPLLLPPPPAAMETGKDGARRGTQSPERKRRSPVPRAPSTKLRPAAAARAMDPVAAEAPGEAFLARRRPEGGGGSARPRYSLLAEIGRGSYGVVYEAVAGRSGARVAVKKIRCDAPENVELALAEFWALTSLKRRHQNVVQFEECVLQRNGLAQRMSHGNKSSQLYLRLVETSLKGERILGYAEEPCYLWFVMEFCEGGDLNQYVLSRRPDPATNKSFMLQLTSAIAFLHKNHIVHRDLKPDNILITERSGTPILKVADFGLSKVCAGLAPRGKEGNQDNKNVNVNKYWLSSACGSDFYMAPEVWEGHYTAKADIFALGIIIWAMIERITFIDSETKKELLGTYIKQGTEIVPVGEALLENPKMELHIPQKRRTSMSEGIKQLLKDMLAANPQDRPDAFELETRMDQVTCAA

CAMK2D = target: T6, CAMK2D (Homo sapiens, UniProt Q13557); assay: KINOMEscan panel screen; format: binding; details: read-out: Percent Control(%)
T6 construct: purchased DiscoveRx KINOMEscan (Ambit Biosciences)

KIT(D816V) = target: T7, KIT(D816V) (Homo sapiens, UniProt P10721, D816V); assay: KINOMEscan panel screen; format: binding; details: read-out: Percent Control(%)
T7 construct: purchased DiscoveRx KINOMEscan (Ambit Biosciences)

PIP5K1C = target: T8, PIP5K1C (Homo sapiens, UniProt O60331); assay: KINOMEscan panel screen; format: binding; details: read-out: Percent Control(%)
T8 construct: purchased DiscoveRx KINOMEscan (Ambit Biosciences)

CSNK1A1 = target: T9, CSNK1A1 (Homo sapiens, UniProt P48729); assay: KINOMEscan panel screen; format: binding; details: read-out: Percent Control(%)
T9 construct: purchased DiscoveRx KINOMEscan (Ambit Biosciences)

NEK2 = target: T10, NEK2 (Homo sapiens, UniProt P51955); assay: KINOMEscan panel screen; format: binding; details: read-out: Percent Control(%)
T10 construct: purchased DiscoveRx KINOMEscan (Ambit Biosciences)

SRPK1 = target: T11, SRPK1 (Homo sapiens, UniProt Q96SB4); assay: KINOMEscan panel screen; format: binding; details: read-out: Percent Control(%)
T11 construct: purchased DiscoveRx KINOMEscan (Ambit Biosciences)

PRKR = target: T12, PRKR (Homo sapiens, UniProt P19525); assay: KINOMEscan panel screen; format: binding; details: read-out: Percent Control(%)
T12 construct: purchased DiscoveRx KINOMEscan (Ambit Biosciences)

PCTK2 = target: T13, PCTK2 (Homo sapiens, UniProt Q00537); assay: KINOMEscan panel screen; format: binding; details: read-out: Percent Control(%)
T13 construct: purchased DiscoveRx KINOMEscan (Ambit Biosciences)

[1] = target: T14, ABL1(T315I)-nonphosphorylated (Homo sapiens, UniProt P00519, T315I); assay: KINOMEscan panel screen; format: binding; details: read-out: Percent Control(%)
T14 construct: purchased DiscoveRx KINOMEscan (Ambit Biosciences)

CSNK1D = target: T15, CSNK1D (Homo sapiens, UniProt P48730); assay: KINOMEscan panel screen; format: binding; details: read-out: Percent Control(%)
T15 construct: purchased DiscoveRx KINOMEscan (Ambit Biosciences)
T15 sequence (P48730 whole entry): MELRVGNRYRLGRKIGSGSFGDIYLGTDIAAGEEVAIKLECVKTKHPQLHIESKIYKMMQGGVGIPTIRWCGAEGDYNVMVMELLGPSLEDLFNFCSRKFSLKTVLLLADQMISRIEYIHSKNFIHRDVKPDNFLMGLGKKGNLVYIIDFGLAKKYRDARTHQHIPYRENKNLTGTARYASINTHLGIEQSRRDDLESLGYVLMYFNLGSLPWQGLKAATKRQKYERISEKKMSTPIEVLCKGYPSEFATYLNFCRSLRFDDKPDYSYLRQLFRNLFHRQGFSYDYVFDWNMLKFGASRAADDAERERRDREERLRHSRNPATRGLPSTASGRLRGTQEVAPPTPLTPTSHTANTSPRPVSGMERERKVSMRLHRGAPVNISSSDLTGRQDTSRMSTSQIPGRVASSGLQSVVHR

PIP5K2B = target: T16, PIP5K2B (Homo sapiens, UniProt P78356); assay: KINOMEscan panel screen; format: binding; details: read-out: Percent Control(%)
T16 construct: purchased DiscoveRx KINOMEscan (Ambit Biosciences)

MAP4K3 = target: T17, MAP4K3 (Homo sapiens, UniProt Q8IVH8); assay: KINOMEscan panel screen; format: binding; details: read-out: Percent Control(%)
T17 construct: purchased DiscoveRx KINOMEscan (Ambit Biosciences)
T17 sequence (Q8IVH8 whole entry): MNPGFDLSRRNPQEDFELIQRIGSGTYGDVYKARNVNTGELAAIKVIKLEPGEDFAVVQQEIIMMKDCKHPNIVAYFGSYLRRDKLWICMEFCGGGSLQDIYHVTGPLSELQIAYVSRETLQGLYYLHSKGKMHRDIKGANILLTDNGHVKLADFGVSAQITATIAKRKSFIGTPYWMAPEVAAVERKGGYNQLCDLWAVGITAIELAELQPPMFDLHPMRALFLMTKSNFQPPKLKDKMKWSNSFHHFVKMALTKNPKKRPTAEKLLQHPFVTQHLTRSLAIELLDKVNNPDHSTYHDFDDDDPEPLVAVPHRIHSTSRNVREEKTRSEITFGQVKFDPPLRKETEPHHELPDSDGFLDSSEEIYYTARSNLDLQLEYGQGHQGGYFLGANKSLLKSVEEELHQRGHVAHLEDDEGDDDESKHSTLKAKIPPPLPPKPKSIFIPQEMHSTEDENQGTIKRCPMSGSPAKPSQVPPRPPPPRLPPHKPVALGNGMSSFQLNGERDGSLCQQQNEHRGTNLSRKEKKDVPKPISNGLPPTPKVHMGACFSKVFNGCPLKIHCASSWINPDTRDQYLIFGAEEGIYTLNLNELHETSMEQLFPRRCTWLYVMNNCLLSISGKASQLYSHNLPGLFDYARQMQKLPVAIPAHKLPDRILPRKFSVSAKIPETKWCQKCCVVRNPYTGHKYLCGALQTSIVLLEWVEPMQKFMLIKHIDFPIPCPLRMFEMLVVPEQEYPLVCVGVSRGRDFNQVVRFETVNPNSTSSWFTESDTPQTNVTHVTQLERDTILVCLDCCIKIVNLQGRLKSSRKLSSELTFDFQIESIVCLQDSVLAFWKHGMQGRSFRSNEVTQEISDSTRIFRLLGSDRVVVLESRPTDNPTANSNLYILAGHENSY

DMPK2 = target: T18, DMPK2 (Homo sapiens, UniProt Q6DT37); assay: KINOMEscan panel screen; format: binding; details: read-out: Percent Control(%)
T18 construct: purchased DiscoveRx KINOMEscan (Ambit Biosciences)

ICK = target: T19, ICK (Homo sapiens, UniProt Q9UPZ9); assay: KINOMEscan panel screen; format: binding; details: read-out: Percent Control(%)
T19 construct: purchased DiscoveRx KINOMEscan (Ambit Biosciences)

CIT = target: T20, CIT (Homo sapiens, UniProt O14578); assay: KINOMEscan panel screen; format: binding; details: read-out: Percent Control(%)
T20 construct: purchased DiscoveRx KINOMEscan (Ambit Biosciences)

MYLK = target: T21, MYLK (Homo sapiens, UniProt Q15746); assay: KINOMEscan panel screen; format: binding; details: read-out: Percent Control(%)
T21 construct: purchased DiscoveRx KINOMEscan (Ambit Biosciences)

PKN1 = target: T22, PKN1 (Homo sapiens, UniProt Q16512); assay: KINOMEscan panel screen; format: binding; details: read-out: Percent Control(%)
T22 construct: purchased DiscoveRx KINOMEscan (Ambit Biosciences)
T22 sequence (Q16512 whole entry): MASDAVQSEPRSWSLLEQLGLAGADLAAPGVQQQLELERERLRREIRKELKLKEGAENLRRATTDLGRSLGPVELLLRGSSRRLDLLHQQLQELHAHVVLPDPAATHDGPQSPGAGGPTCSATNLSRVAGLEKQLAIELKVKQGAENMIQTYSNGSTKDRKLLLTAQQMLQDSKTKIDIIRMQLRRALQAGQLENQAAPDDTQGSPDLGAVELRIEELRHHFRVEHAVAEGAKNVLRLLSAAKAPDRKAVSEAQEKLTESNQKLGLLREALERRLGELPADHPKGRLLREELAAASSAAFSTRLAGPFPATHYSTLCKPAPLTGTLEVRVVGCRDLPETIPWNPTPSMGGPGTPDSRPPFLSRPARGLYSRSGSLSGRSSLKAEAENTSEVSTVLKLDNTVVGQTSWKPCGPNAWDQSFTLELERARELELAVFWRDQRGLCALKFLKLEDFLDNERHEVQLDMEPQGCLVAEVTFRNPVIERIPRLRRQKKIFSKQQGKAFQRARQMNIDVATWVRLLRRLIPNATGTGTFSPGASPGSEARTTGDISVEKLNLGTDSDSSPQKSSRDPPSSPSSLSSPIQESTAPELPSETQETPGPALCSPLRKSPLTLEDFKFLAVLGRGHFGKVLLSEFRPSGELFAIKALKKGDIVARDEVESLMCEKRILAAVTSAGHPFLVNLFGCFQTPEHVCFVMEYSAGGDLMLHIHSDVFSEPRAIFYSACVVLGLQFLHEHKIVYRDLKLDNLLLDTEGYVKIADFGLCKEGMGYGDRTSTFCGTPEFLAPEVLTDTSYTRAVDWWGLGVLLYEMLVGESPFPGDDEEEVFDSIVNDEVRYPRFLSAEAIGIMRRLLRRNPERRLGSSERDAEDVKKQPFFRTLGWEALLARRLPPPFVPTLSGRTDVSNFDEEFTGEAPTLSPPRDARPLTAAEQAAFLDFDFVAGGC

CSF1R = target: T23, CSF1R (Homo sapiens, UniProt P07333); assay: KINOMEscan panel screen; format: binding; details: read-out: Percent Control(%)
T23 construct: purchased DiscoveRx KINOMEscan (Ambit Biosciences)
T23 sequence (P07333 20-972): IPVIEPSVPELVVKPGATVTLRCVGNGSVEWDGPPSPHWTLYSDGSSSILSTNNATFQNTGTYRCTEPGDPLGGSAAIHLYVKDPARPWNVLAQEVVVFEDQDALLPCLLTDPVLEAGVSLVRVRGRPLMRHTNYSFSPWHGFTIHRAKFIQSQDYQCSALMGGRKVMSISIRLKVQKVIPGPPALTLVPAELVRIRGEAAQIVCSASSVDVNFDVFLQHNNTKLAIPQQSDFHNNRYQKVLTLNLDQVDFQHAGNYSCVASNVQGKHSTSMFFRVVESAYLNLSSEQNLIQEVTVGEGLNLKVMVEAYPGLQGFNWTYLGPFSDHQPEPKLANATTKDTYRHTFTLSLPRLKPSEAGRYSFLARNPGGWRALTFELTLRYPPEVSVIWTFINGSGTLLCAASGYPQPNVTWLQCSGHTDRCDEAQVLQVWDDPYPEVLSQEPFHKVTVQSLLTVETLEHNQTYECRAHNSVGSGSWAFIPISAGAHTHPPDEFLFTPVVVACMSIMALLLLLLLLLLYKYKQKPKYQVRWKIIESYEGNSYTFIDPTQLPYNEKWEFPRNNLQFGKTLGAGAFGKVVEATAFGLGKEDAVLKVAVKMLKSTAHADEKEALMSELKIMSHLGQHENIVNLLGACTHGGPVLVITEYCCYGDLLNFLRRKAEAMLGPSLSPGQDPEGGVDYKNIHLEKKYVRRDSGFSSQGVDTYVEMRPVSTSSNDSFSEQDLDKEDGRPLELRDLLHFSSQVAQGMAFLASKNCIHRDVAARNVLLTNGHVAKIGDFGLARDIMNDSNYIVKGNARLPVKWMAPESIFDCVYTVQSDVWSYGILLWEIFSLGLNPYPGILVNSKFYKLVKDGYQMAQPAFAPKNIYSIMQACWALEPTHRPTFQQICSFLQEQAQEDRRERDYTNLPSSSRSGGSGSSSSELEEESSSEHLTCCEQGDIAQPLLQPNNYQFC

PRKD1 = target: T24, PRKD1 (Homo sapiens, UniProt Q15139); assay: KINOMEscan panel screen; format: binding; details: read-out: Percent Control(%)
T24 construct: purchased DiscoveRx KINOMEscan (Ambit Biosciences)

T1 sequence (P08069 31-1367): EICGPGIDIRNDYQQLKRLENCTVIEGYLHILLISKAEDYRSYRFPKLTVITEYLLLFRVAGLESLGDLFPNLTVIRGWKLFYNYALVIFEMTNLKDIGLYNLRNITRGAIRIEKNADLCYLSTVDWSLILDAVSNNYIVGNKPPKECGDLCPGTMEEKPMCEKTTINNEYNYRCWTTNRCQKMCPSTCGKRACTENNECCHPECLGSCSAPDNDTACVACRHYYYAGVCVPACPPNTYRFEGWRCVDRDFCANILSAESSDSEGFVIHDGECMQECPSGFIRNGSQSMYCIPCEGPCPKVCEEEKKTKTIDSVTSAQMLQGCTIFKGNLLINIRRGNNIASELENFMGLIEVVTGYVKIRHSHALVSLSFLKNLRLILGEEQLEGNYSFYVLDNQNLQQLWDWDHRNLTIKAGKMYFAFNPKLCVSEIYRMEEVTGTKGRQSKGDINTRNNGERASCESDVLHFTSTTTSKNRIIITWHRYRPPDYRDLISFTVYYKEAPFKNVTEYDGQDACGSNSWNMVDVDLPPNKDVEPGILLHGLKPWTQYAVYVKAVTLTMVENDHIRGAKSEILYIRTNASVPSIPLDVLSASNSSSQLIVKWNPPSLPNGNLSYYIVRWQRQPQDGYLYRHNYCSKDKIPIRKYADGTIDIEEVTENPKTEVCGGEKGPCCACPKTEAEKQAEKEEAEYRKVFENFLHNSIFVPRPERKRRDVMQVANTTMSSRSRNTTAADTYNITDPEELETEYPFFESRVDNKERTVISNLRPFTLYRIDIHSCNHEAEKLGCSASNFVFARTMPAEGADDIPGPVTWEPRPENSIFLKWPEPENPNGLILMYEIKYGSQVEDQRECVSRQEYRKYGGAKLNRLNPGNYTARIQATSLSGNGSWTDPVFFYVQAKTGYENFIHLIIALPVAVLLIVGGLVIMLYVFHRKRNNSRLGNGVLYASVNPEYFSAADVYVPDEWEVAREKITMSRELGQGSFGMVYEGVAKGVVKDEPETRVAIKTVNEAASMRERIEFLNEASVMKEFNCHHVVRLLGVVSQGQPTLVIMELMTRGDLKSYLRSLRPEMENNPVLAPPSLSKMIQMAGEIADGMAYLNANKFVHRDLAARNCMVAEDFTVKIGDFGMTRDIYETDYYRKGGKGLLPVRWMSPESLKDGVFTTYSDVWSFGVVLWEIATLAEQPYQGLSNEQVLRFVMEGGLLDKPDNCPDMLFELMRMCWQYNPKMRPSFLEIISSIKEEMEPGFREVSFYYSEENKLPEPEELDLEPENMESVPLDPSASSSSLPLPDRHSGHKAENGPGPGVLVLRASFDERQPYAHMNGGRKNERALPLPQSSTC

## O=C(Nc1ccc(Oc2ncnc3[nH]ncc23)cc1)Nc1ccc(Cl)c(C(F)(F)F)c1 [Compound 1, 1-(4-(1H-pyrazolo[3,4-d]pyrimidin-4-yloxy)phenyl)-3-(4-chloro-3-(trifluoromethyl)phenyl)urea]
IGF1R
  IC50: > 10 µM

## CC(C)(C)c1cc(NC(=O)Nc2ccc(Oc3ncnc4[nH]ncc34)c(F)c2)no1 [SKLB-677, 1-(4-(1H-pyrazolo[3,4-d]pyrimidin-4-yloxy)-3-fluorophenyl)-3-(5-tert-butylisoxazol-3-yl)urea]
PIM1
  remaining binding at 10 µM: 26%
HCK
  remaining binding at 10 µM: 0.5%
MAPKAPK2
  remaining binding at 10 µM: 100%
STK35
  remaining binding at 10 µM: 0.95%
CAMK2D
  remaining binding at 10 µM: 100%
KIT(D816V)
  remaining binding at 10 µM: 0.2%
PIP5K1C
  remaining binding at 10 µM: 51%
CSNK1A1
  remaining binding at 10 µM: 100%
NEK2
  remaining binding at 10 µM: 100%
SRPK1
  remaining binding at 10 µM: 96%
PRKR
  remaining binding at 10 µM: 57%
PCTK2
  remaining binding at 10 µM: 0%
[1]
  remaining binding at 10 µM: 3%
CSNK1D
  remaining binding at 10 µM: 44%
PIP5K2B
  remaining binding at 10 µM: 98%
MAP4K3
  remaining binding at 10 µM: 3.2%
DMPK2
  remaining binding at 10 µM: 50%
ICK
  remaining binding at 10 µM: 42%
CIT
  remaining binding at 10 µM: 16%
MYLK
  remaining binding at 10 µM: 40%
PKN1
  remaining binding at 10 µM: 82%
CSF1R
  remaining binding at 10 µM: 0.3%
PRKD1
  remaining binding at 10 µM: 98%
